The test can be described thus: Binding affinity to LAR C1536S mutant (unknown origin) assessed as inhibition constant by Michaelis-Menten analysis. On the set-up: species or system Homo sapiens.

Molecules are shown by their SMILES.

As for `CC1(C)Cc2c(O)c(C=O)c3c(c2C1)C(=O)OC(O)C3` (stereo unspecified) [ILLUDALIC ACID], the Ki is 7 µM.
